In patent US8431563B2 (priority 2010, dated 2013) one finds IC50 and EC50 data, which are given here for 21 compounds.

Experiment [1] deals with T1, interaction between glucokinase (GK) and glucokinase regulatory protein (GKRP) (Homo sapiens, UniProt Q14397).
T1 sequence (Q14397 1-625): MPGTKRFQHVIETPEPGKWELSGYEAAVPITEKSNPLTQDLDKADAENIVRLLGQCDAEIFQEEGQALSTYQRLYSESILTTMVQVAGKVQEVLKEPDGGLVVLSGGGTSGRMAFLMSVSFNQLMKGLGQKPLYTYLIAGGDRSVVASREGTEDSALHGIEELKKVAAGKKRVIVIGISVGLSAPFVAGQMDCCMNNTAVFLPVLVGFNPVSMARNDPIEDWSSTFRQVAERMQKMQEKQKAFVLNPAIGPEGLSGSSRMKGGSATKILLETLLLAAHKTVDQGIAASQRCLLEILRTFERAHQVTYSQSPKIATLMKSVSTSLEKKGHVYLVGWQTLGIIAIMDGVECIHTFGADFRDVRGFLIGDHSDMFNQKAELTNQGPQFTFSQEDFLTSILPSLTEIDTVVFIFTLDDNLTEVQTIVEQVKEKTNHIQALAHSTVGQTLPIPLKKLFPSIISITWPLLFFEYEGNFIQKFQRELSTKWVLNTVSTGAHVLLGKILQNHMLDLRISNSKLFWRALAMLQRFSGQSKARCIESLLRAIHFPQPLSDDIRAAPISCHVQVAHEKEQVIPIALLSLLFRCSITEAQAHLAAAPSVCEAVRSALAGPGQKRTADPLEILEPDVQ
The experiment is described as follows: biochemical. The experiment is classed as binding. Particulars: read-out: GK-GKRP IC50 (Binding). Summed up: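 Avi-tagged human GKRP preincubated with compound for 20 min at room temperature, then 6 nM GK-fluorescein (concentration of added solution) introduced and incubated 2 h in the dark. Buffer: 20 mM Tris pH 7.5, 0.05% BSA, 1 mM DTT, 1 μM sorbitol-6-phosphate. Plate read on a fluorescence reader.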

Experiment [2] addresses T2, GKRP (Glucokinase Regulatory Protein) with human His-hepatic GK (Homo sapiens, UniProt Q14397).
T2 sequence (Q14397 1-625): T1 sequence (Q14397 1-625)
The experiment can be described thus: biochemical. Summed up: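 Human His-tagged hepatic GK (30 nM in the 5× working stock) in 50 mM Tris pH 7.5, 4 mM MgCl2, 6% DMSO with DTT, BSA and Brij-35. Enzyme was added after a 30 min step and reacted 30 min at room temperature. The reaction was stopped with acetonitrile and 13C-glucose-6-phosphate formed from 13C-glucose was quantified by LC MS/MS.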

The mark [3] stands for this setting: avi-tagged GKRP, GK-fluorescein, AlphaScreen beads.
[4] abbreviates: 13C-glucose-6-phosphate formation, 280 nM GKRP (10×), 30 nM GK (5×), read-out: GK-GKRP EC50 (LC MS/MS-2).

Each structure is given as a SMILES string. Like-named read-outs stand apart in the source and are kept apart here.

As for `CC(O)(c1ccc(N2CCN(S(=O)(=O)c3cccs3)C[C@@H]2CS(=O)(=O)c2ccc(F)cc2)cc1)C(F)(F)F` (mixture of isomers) [Example 191 Peak#1, 1,1,1-trifluoro-2-(4-((2R)-2-(((4-fluorophenyl)sulfonyl)methyl)-4-(2-thiophenylsulfonyl)-1-piperazinyl)phenyl)-2-propanol], the 50% inhibitory concentration (IC50) in experiment [1] (setting [3]) was 177 nM. In experiment [2] (setting [4]), the EC50 was 166 nM.

Take `CC(O)(c1ccc(N2CCN(S(=O)(=O)c3cccs3)C[C@@H]2CN2C3CCCC2CC(O)C3)cc1)C(F)(F)F` (mixture of isomers) [Example 141, 9-(((2S)-4-(2-thiophenylsulfonyl)-1-(4-(2,2,2-trifluoro-1-hydroxy-1-methylethyl)phenyl)-2-piperazinyl)methyl)-9-azabicyclo[3.3.1]nonan-3-ol (endo)]: the IC50 in experiment [1] (setting [3]) worked out at 11 nM. In experiment [2] (GK-GKRP EC50 (LC MS/MS-2), 13C-glucose-6-phosphate formation, 280 nM GKRP (10×), 30 nM GK (5×)), this compound showed an EC50 of 26 nM.

In the case of `CC(O)(c1ccc(N2CCN(S(=O)(=O)c3cccs3)C[C@@H]2CN2C3COCC2C(O)C3)cc1)C(F)(F)F` (single isomer, unassigned; peak #1) [Example 77 Peak #1], in experiment [1] (setting [3]), the IC50 is 13 nM. For the same compound, in experiment [2] (setting [4]), the EC50 is 38 nM.

Regarding `CC(O)(c1cnc(N2CCN(S(=O)(=O)c3ccc(N)nc3)C[C@@H]2CC2CCOCC2)nc1)C(F)(F)F` (mixture of isomers) [Example 131], the IC50 in experiment [1] (setting [3]) came out at 124 nM. Further, the EC50 in experiment [2] (setting [4]) worked out at 102 nM.

For `CC(O)(c1ccc(N2CCN(S(=O)(=O)c3cccs3)C[C@@H]2CSc2ccccc2)cc1)C(F)(F)F` (mixture of isomers) [Example 186, 1,1,1-trifluoro-2-(4-((2R)-2-((phenylsulfanyl)methyl)-4-(2-thiophenylsulfonyl)-1-piperazinyl)phenyl)-2-propanol], in experiment [1], the IC50 was determined as 14 nM. Further, in experiment [2] (read-out: GK-GKRP EC50 (LC MS/MS-2)), the EC50 came to 24 nM.

In the case of `CC(O)(c1ccc(N2CCN(S(=O)(=O)c3cccs3)C[C@@H]2CN2[C@@H]3COC[C@H]2CC(O)C3)cc1)C(F)(F)F` (stereo partly drawn) [Example 107, 9-(((2S)-4-(2-thiophenylsulfonyl)-1-(4-(2,2,2-trifluoro-1-hydroxy-1-methylethyl)phenyl)-2-piperazinyl)methyl)-3-oxa-9-azabicyclo[3.3.1]nonan-7-ol (endo)], the IC50 in experiment [1] (setting [3]) was found to be 5 nM. In addition, the EC50 in experiment [2] (setting [4]) amounted to 16 nM.

With `CC1(COC[C@H]2CN(S(=O)(=O)c3cccs3)CCN2c2ccc(C(C)(O)C(F)(F)F)cc2)COC1` (mixture of isomers) [Example 117, 1,1,1-trifluoro-2-(4-((2R)-2-(((3-methyl-3-oxetanyl)methoxy)methyl)-4-(2-thiophenylsulfonyl)-1-piperazinyl)phenyl)-2-propanol], in experiment [1] (setting [3]), the IC50 was determined as 467 nM. For the same compound, the EC50 in experiment [2] (setting [4]) amounted to 463 nM.

Consider `Nc1ccc(S(=O)(=O)N2CCN(c3ccc(C(O)(C(F)(F)F)C(F)(F)F)cc3)[C@@H](CC3CCOCC3)C2)cn1` [Example 126, 2-(4-((2S)-4-((6-amino-3-pyridinyl)sulfonyl)-2-(tetrahydro-2H-pyran-4-ylmethyl)-1-piperazinyl)phenyl)-1,1,1,3,3,3-hexafluoro-2-propanol], for which the IC50 in experiment [1] (setting [3]) is 22 nM. Further, the EC50 in experiment [2] (setting [4]) worked out at 37 nM.

As to `CC(O)(c1ccc(N2CCN(S(=O)(=O)c3cccs3)C[C@@H]2CN(Cc2cccnc2)S(C)(=O)=O)cc1)C(F)(F)F` (mixture of isomers) [Example 221, N-(3-pyridinylmethyl)-N-(((2S)-4-(2-thiophenylsulfonyl)-1-(4-(2,2,2-trifluoro-1-hydroxy-1-methylethyl)phenyl)-2-piperazinyl)methyl)methanesulfonamide], the 50% inhibitory concentration (IC50) in experiment [1] (setting [3]) is 13 nM. Moreover, in experiment [2] (setting [4]), the EC50 was found to be 41 nM.

As for `CC(F)(c1ccc(N2CCN(S(=O)(=O)c3cccs3)C[C@@H]2CN2C3CCCC2CC(F)C3)cc1)C(F)(F)F` (mixture of isomers) [Example 142, 3-fluoro-9-(((2S)-1-(4-(1,2,2,2-tetrafluoro-1-methylethyl)phenyl)-4-(2-thiophenylsulfonyl)-2-piperazinyl)methyl)-9-azabicyclo[3.3.1]nonane (exo)], in experiment [1] (setting [3]), the IC50 came out at 47 nM. The EC50 in experiment [2] (setting [4]) came to 189 nM.

Take `CC(O)(c1ccc(N2CCN(S(=O)(=O)c3cccs3)C[C@@H]2CN2[C@@H]3COC[C@H]2CC(=O)C3)cc1)C(F)(F)F` (stereo partly drawn) [Example 106, 9-(((2S)-4-(2-thiophenylsulfonyl)-1-(4-(2,2,2-trifluoro-1-hydroxy-1-methylethyl)phenyl)-2-piperazinyl)methyl)-3-oxa-9-azabicyclo[3.3.1]nonan-7-one]: in experiment [1] (setting [3]), the 50% inhibitory concentration (IC50) is 35 nM. Also, the EC50 in experiment [2] (setting [4]) came out at 97 nM.

With `CC(O)(c1ccc(N2CCN(S(=O)(=O)c3cccs3)C[C@@H]2CN(C2CC2)S(C)(=O)=O)cc1)C(F)(F)F` (mixture of isomers) [Example 200, N-cyclopropyl-N-(((2R)-4-(2-thiophenylsulfonyl)-1-(4-(2,2,2-trifluoro-1-hydroxy-1-methylethyl)phenyl)-2-piperazinyl)methyl)methanesulfonamide], the concentration for half-maximal inhibition (IC50) in experiment [1] (setting [3]) stood at 26 nM. For the same compound, in experiment [2] (setting [4]), the EC50 was 39 nM.

Regarding `CC(O)(c1ccc(N2CCN(S(=O)(=O)c3ccc(N)s3)C[C@@H]2Cc2ccccc2)cc1)C(F)(F)F` (mixture of isomers) [Example 136, 2-(4-((2S)-4-((5-amino-2-thiophenyl)sulfonyl)-2-benzyl-1-piperazinyl)phenyl)-1,1,1-trifluoro-2-propanol], in experiment [1] (setting [3]), the IC50 is 250 nM. Besides, the EC50 in experiment [2] (setting [4]) worked out at 146 nM.

On to `CC(O)(c1ccc(N2CCN(S(=O)(=O)c3cccs3)C[C@@H]2C[S+]([O-])c2ccc(F)cc2)cc1)C(F)(F)F` (single isomer, unassigned) [Example 191 Peak#2], for which, in experiment [1] (setting [3]), the IC50 was 425 nM. For the same compound, the EC50 in experiment [2] (setting [4]) came out at 252 nM.

On to `C[C@H]1COCCN1C[C@H]1CN(S(=O)(=O)c2cccs2)CCN1c1ncc(C(O)(C(F)(F)F)C(F)(F)F)cn1` [Example 82, 1,1,1,3,3,3-hexafluoro-2-(2-((2S)-2-(((3S)-3-methyl-4-morpholinyl)methyl)-4-(2-thiophenylsulfonyl)-1-piperazinyl)-5-pyrimidinyl)-2-propanol], for which, in experiment [1] (setting [3]), the IC50 came to 15 nM. For the same compound, the EC50 in experiment [2] (setting [4]) was 26 nM.

Consider `CC(C)C1C(=O)NCCN1C[C@H]1CN(S(=O)(=O)c2cccs2)CCN1c1ccc(C(C)(O)C(F)(F)F)cc1` (single isomer, unassigned) [Example 181 Peak #2], for which the half-inhibitory concentration (IC50) in experiment [1] (setting [3]) stood at 1 nM. In addition, the EC50 in experiment [2] (setting [4]) turned out to be 14 nM.

`C[C@H]1CN(S(=O)(=O)c2ccc(N)s2)CCN1c1ccc(C(C)(O)C(F)(F)F)cc1` (mixture of isomers) [Example 139, 2-(4-((2S)-4-((5-amino-2-thiophenyl)sulfonyl)-2-methyl-1-piperazinyl)phenyl)-1,1,1-trifluoro-2-propanol]: in experiment [1] (setting [3]), the IC50 came out at 630 nM. Also, the EC50 in experiment [2] (setting [4]) was 370 nM.

As for `O=S(=O)(c1cccs1)N1CCN(c2ncc(C(O)(C(F)(F)F)C(F)(F)F)cn2)[C@@H](CN2C3COCC2C(O)C3)C1` (single isomer, unassigned) [Example 79 Peak #1], in experiment [1] (setting [3]), the IC50 was found to be 49 nM. Besides, in experiment [2] (setting [4]), the EC50 was determined as 50 nM.

With `Nc1ccc(S(=O)(=O)N2CCN(c3ncc(C(O)(C(F)(F)F)C(F)(F)F)cn3)[C@@H](CN3C4COCC3CC(O)C4)C2)s1` (stereo partly drawn) [Example 98 nonan-7-ol (endo), 9-(((2S)-4-((5-amino-2-thiophenyl)sulfonyl)-1-(5-(2,2,2-trifluoro-1-hydroxy-1-(trifluoromethyl)ethyl)-2-pyrimidinyl)-2-piperazinyl)methyl)-3-oxa-9-azabicyclo[3.3.1]nonan-7-ol (endo)], the IC50 in experiment [1] (setting [3]) was found to be 2 nM. Besides, in experiment [2] (setting [4]), the EC50 was 19 nM.

Consider `CC1(O)C[C@H]2COC[C@@H](C1)N2C[C@H]1CN(S(=O)(=O)c2cccs2)CCN1c1ccc(C(C)(O)C(F)(F)F)cc1` (stereo partly drawn) [Example 108, (1R,5S)-7-methyl-9-(((2S)-4-(2-thiophenylsulfonyl)-1-(4-(2,2,2-trifluoro-1-hydroxy-1-methylethyl)phenyl)-2-piperazinyl)methyl)-3-oxa-9-azabicyclo[3.3.1]nonan-7-ol (endo)], for which the IC50 in experiment [1] (setting [3]) was 27 nM. Besides, the EC50 in experiment [2] (setting [4]) turned out to be 45 nM.

As to `CCC(C#Cc1cc(C(O)(C(F)(F)F)C(F)(F)F)ccc1N1CCN(S(=O)(=O)c2cccs2)CC1)OC` (racemic) [Example 155, 1,1,1,3,3,3-hexafluoro-2-(3-(3-methoxy-1-pentyn-1-yl)-4-(4-(2-thiophenylsulfonyl)-1-piperazinyl)phenyl)-2-propanol], the half-maximal inhibitory concentration (IC50) in experiment [1] (setting [3]) was 145 nM. In addition, the EC50 in experiment [2] (setting [4]) is 112 nM.
